In patent US20120041172A1, “METHOD FOR THE MANUFACTURE OF DEGARELIX” (Polypeptide Laboratories A/S, priority 2009, published 2012):
Non-standard residues stand in square brackets, D forms with d. Residues, ends and D or L forms follow the SMILES beside them. *: point of attachment. dPhe(4-NHCONH2) = NC(=O)Nc1ccc(C[C@@H](N)C(=O)O)cc1; Dihydroorotyl(S) = O=C1C[C@@H](C(=O)*)NC(=O)N1; dPhe(4-Cl) = N[C@H](Cc1ccc(Cl)cc1)C(=O)O; Phe(4-NH2) = Nc1ccc(C[C@H](N)C(=O)O)cc1; d2Nal = N[C@H](Cc1ccc2ccccc2c1)C(=O)O; Lys(iPr) = CC(C)NCCCC[C@H](N)C(=O)O; d3Pal = N[C@H](Cc1cccnc1)C(=O)O

Assays:
[1] = Stability of degarelix in DBU/DMF and piperidine/DMF (Fmoc-removal conditions), HPLC; format: physicochemical; details: 20 h
Protocol: Stability of degarelix in DBU/DMF and piperidine/DMF. The stability of degarelix was tested under conditions corresponding to those used for removal of the Fmoc-group during SPPS. The hydroorotic group in the side chain of 4Aph(Hor), amino acid residue no. 5 in the sequence of degarelix, is known to be sensitive to base and rearrange to a hydantoinacetyl group. All SPPS procedures known to the inventors had been based on Boc-chemistry.
Samples of degarelix were dissolved in 20% piperidine/DMF; 2% DBU in DMF, and 2% DBU+5% water in DMF; respectively. The samples were analysed by HPLC after 20 h and the amount of the hydantoin analogue determined.
If 5% water was present, too (simulating wet DMF), the amount was increased to 7%.

[2] = Instability of the hydroorotic moiety under basic conditions (DCHA in wet 2-BuOH); format: physicochemical; details: 67 mM in wet 2-BuOH with 167 mM (2.5 eq) DCHA, 31° C, after 25 h
Protocol: The following experiment provided further proof of the instability of the hydrooroic moiety under basic conditions. Z-Ser(tBu)-4Aph(Hor)-D-4Aph(tBu-Cbm)-Leu-OH.DCHA (67 mM) was dissolved in wet 2-BuOH with 167 mM (2.5 eq) DCHA at 31° C. After 25 h, 1.3% of the hydantoin analogue and 0.3% of the hydrolysed intermediate had been formed.

amount of the hydantoin analogue formed ([1]; 2% DBU + 5% water in DMF (simulating wet DMF)) [%]	amount of the hydantoin analogue formed ([1]; 2% DBU in DMF) [%]	hydantoin analogue formed [2] [%]	hydrolysed intermediate formed [2] [%]	Compound	formation of the hydantoin analogue ([1]; 20% piperidine in DMF)
7	1.8			CC(=O)N[C@H](Cc1ccc2ccccc2c1)C(=O)N[C@H](Cc1ccc(Cl)cc1)C(=O)N[C@H](Cc1cccnc1)C(=O)N[C@@H](CO)C(=O)N[C@@H](Cc1ccc(NC(=O)[C@@H]2CC(=O)NC(=O)N2)cc1)C(=O)N[C@H](Cc1ccc(NC(N)=O)cc1)C(=O)N[C@@H](CC(C)C)C(=O)N[C@@H](CCCCNC(C)C)C(=O)N1CCC[C@H]1C(=O)N[C@H](C)C(N)=O [degarelix, Ac-D-2Nal-D-Phe(4Cl)-D-3 Pal-Ser-4Aph(Hor)-D-4Aph(Cbm)-Leu-ILys-Pro-D-Ala-NH2] (Ac-[d2Nal][dPhe(4-Cl)][d3Pal]S[Phe(4-NH2)](Dihydroorotyl(S))[dPhe(4-NHCONH2)]L[Lys(iPr)]P[dA]-NH2)	did not result in any formation of the hydantoin analogue
		1.3	0.3	Z-Ser(tBu)-4Aph(Hor)-D-4Aph(tBu-Cbm)-Leu-OH.DCHA	
